# Reference: US12649750B2, “Macrocyclic compounds, compositions, and methods of using thereof” (Sionna Therapeutics Inc., priority 2022, dated 2026)
# What was measured:
# NBD1 = target: T1, NBD1 (Homo sapiens, UniProt P13569); experiment: Aggregation analysis using differential static light scattering (DSLS), thermal stability of NBD1 (ΔTagg); type: binding; details: ΔTagg versus DMSO control, NBD1 0.2 mg/ml
# T1 construct: Purified recombinant NBD1 was produced using previously described methods; made in house
# T1 sequence (P13569 423-646 limits assumed): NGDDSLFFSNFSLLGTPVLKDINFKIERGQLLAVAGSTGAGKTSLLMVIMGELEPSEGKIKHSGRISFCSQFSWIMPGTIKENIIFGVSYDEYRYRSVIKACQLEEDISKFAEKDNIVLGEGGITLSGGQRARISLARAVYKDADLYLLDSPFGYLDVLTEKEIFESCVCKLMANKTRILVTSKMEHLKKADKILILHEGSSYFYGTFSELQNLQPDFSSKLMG
# How it was run: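 Stabilisation is measured as the shift in aggregation onset of recombinant NBD1 (0.2 mg/ml, 2 mM ATP, 5 mM MgCl2, pH7.6) exposed to compound. Images are taken every 0.5° C. while heating at 1° C. per minute, and the inflection-point Tagg is corrected by the DMSO mean.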
# CFTR = target: T2, CFTR (Homo sapiens, UniProt P13569, DEL508-508); experiment: TECC24 AUC fold over DMSO @10 μM, CFTR-mediated transepithelial chloride transport in CF-HBE cells; type: cell-based; details: test agent AUC divided by DMSO vehicle AUC, primary CF-HBE cells, ΔF508 homozygous donor, 48 hours incubation
# T2 construct: Primary human bronchial epithelial cells from a ΔF508 homozygous CF donor; host or cells: primary human bronchial epithelial cells (CF-HBE), ΔF508 homozygous donor
# T2 sequence (P13569 with tags, fused parts or gaps DEL508-508): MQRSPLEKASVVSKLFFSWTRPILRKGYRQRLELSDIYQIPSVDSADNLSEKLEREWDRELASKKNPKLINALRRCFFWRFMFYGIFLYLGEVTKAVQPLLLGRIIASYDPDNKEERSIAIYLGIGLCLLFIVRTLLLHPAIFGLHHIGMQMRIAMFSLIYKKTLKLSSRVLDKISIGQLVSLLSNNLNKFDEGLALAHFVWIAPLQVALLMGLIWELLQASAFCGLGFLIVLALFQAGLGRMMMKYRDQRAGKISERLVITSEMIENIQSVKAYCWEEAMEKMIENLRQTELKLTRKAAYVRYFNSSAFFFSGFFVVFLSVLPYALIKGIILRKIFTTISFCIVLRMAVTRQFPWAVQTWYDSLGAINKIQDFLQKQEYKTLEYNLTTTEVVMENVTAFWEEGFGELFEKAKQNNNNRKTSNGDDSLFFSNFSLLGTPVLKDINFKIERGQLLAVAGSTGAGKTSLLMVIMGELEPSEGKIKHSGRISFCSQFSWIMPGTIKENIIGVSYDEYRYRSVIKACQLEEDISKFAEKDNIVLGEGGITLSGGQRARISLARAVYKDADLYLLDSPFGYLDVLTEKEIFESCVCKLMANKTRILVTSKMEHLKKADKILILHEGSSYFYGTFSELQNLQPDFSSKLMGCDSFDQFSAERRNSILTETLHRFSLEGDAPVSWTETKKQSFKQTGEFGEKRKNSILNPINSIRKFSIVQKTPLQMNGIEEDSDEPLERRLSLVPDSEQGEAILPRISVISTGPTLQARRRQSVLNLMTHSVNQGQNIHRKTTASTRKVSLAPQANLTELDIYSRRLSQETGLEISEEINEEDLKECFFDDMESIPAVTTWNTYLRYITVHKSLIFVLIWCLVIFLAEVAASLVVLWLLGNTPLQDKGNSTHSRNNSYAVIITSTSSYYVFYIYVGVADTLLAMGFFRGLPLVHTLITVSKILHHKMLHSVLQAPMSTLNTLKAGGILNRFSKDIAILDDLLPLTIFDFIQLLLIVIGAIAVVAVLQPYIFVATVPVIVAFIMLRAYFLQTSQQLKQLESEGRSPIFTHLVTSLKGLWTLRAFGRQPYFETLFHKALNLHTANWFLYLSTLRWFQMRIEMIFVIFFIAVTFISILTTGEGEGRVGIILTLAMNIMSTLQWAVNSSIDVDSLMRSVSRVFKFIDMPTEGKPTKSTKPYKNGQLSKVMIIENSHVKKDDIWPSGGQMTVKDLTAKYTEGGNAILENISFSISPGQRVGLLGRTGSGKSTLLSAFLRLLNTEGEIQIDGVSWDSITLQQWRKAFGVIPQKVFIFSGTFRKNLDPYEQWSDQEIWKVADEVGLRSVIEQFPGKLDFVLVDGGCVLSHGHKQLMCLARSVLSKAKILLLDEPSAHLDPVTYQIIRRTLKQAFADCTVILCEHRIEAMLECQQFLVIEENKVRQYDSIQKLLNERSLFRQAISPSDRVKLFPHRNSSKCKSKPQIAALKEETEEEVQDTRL
# How it was run: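 Value is ratio of test-agent to DMSO AUC of equivalent transepithelial Cl− current, integrated from forskolin (10 μM) stimulation to CFTR inhibitor-172 (20 μM) block, with benzamil 10 μM present. CF-HBE (ΔF508/ΔF508) cultures had 48 h compound exposure at 10 μM, 36.5° C before recording.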
SMILES,DSLS 3D (100 μM ΔT) (NBD1),"TECC (AUC, 10 μM) (CFTR)"
"Cn1nc2nc1-c1cc(ccn1)Sc1c(F)c(F)c3[nH]ccc3c1CCS(=O)(=O)CC(C)(C)CCC[C@]2(C)c1cccc(CCC(=O)O)c1 [Compound 276, 3-[3-[(6R)-21,22-difluoro-3,6,10,10-tetramethyl-12,12-dioxo-12λ6,24-dithia-3,4,19,28,30-pentazapentacyclo[23.3.1.12,5.015,23.016,20]triaconta-1(29),2(30),4,15,17,20,22,25,27-nonaen-6-yl]phenyl]propanoic Acid]",C (a value greater than 10 °C and less than or equal to 25 °C is marked “C”),B (a value between 12-20 is marked “B”)
"C[C@@H](Cc1cccc([C@@]2(C)CCCC(C)(C)CS(=O)(=O)CCc3c(c(F)cc4[nH]ccc34)Sc3ccnc(c3)-c3nc2nn3C)c1F)C(=O)O [Compound 277, (2S)-3-[2-fluoro-3-[(6R)-22-fluoro-3,6,10,10-tetramethyl-12,12-dioxo-12λ6,24-dithia-3,4,19,28,30-pentazapentacyclo[23.3.1.12,5.015,23.016,20]triaconta-1(29),2(30),4,15,17,20,22,25,27-nonaen-6-yl]phenyl]-2-methyl-propanoic acid]",C (a value greater than 10 °C and less than or equal to 25 °C is marked “C”),A (a TECC value less than 12 is marked “A”)
"Cn1nc2nc1-c1cc(ccn1)[S+]([O-])c1c(F)cc3[nH]ccc3c1CCS(=O)(=O)CC(C)(C)CCC[C@]2(C)c1cccc(CC(C)(C)C(=O)O)c1 (stereo partly drawn) [Compound 278, 3-[3-[(6R)-22-fluoro-3,6,10,10-tetramethyl-12,12,24-trioxo-12λ6,24λ4-dithia-3,4,19,28,30-pentazapentacyclo[23.3.1.12,5.015,23.016,20]triaconta-1(29),2(30),4,15,17,20,22,25,27-nonaen-6-yl]phenyl]-2,2-dimethyl-propanoic Acid]",C (a value greater than 10 °C and less than or equal to 25 °C is marked “C”),C (a value between 20 and 80 is marked “C”)
"Cn1nc2nc1-c1cc(ccc1F)Sc1c(F)c(F)c3[nH]ccc3c1CCS(=O)(=O)CC(C)(C)CCC[C@]2(C)c1cccc(CC(C)(C)C(=O)O)c1 [Compound 279, 2,2-Dimethyl-3-[3-[(6R)-21,22,28-trifluoro-3,6,10,10-tetramethyl-12,12-dioxo-12λ6,24-dithia-3,4,19,30-tetrazapentacyclo[23.3.1.12,5.015,23.016,20]triaconta-1(29),2(30),4,15,17,20,22,25,27-nonaen-6-yl]phenyl]propanoic Acid]",C (a value greater than 10 °C and less than or equal to 25 °C is marked “C”),C (a value between 20 and 80 is marked “C”)
"Cn1nc2nc1-c1cc(ccc1F)[S+]([O-])c1c(F)c(F)c3[nH]ccc3c1CCS(=O)(=O)CC(C)(C)CCC[C@]2(C)c1cccc(CC(C)(C)C(=O)O)c1 (stereo partly drawn) [Compound 280, 2,2-dimethyl-3-[3-[(6R)-21,22,28-trifluoro-3,6,10,10-tetramethyl-12,12,24-trioxo-12λ6,24λ4-dithia-3,4,19,30-tetrazapentacyclo[23.3.1.12,5.015,23.016,20]triaconta-1(29),2(30),4,15,17,20,22,25,27-nonaen-6-yl]phenyl]propanoic Acid]",C (a value greater than 10 °C and less than or equal to 25 °C is marked “C”),C (a value between 20 and 80 is marked “C”)
"Cn1nc2nc1-c1cc(ccn1)Sc1c(F)c(F)c3[nH]ccc3c1CCS(=O)(=O)CC(C)(C)CCC[C@]2(C)c1cccc(C[C@@H](O)CO)c1 [Compound 282, (2R)-3-[3-[(6R)-21,22-difluoro-3,6,10,10-tetramethyl-12,12-dioxo-12λ6,24-dithia-3,4,19,28,30-pentazapentacyclo[23.3.1.12,5.015,23.016,20]triaconta-1(29),2(30),4,15,17,20,22,25,27-nonaen-6-yl]phenyl]propane-1,2-diol]",C (a value greater than 10 °C and less than or equal to 25 °C is marked “C”),C (a value between 20 and 80 is marked “C”)
"C[C@@H](Cc1cccc([C@@]2(C)CCCC(C)(C)CS(=O)(=O)CCc3c(c(F)cc4[nH]ccc34)[S+]([O-])c3ccnc(c3)-c3nc2nn3C)c1F)C(=O)O (stereo partly drawn) [Compound 283, (2S)-3-[2-fluoro-3-[(6R)-22-fluoro-3,6,10,10-tetramethyl-12,12,24-trioxo-12λ6,24λ4-dithia-3,4,19,28,30-pentazapentacyclo[23.3.1.12,5.015,23.016,20]triaconta-1(29),2(30),4,15,17,20,22,25,27-nonaen-6-yl]phenyl]-2-methyl-propanoic Acid]",C (a value greater than 10 °C and less than or equal to 25 °C is marked “C”),C (a value between 20 and 80 is marked “C”)
"Cn1nc2nc1-c1cc(ccc1F)[S+]([O-])c1c(F)cc3[nH]ccc3c1CCS(=O)(=O)CC(C)(C)CCC[C@]2(C)c1cccc(C[C@H](O)CO)c1 (stereo partly drawn) [Compound 286, (2S)-3-[3-[(6R)-22,28-difluoro-3,6,10,10-tetramethyl-12,12,24-trioxo-12λ6,24λ4-dithia-3,4,19,30-tetrazapentacyclo[23.3.1.12,5.015,23.016,20]triaconta-1(29),2(30),4,15,17,20,22,25,27-nonaen-6-yl]phenyl]propane-1,2-diol]",C (a value greater than 10 °C and less than or equal to 25 °C is marked “C”),C (a value between 20 and 80 is marked “C”)
"Cn1nc2nc1-c1cc(ccc1F)Sc1c(F)cc3[nH]ccc3c1CCS(=O)(=O)CC(C)(C)CCC[C@]2(C)c1cccc(C[C@H](O)CO)c1 [Compound 287, (2S)-3-[3-[(6R)-22,28-difluoro-3,6,10,10-tetramethyl-12,12-dioxo-12λ6,24-dithia-3,4,19,30-tetrazapentacyclo[23.3.1.12,5.015,23.016,20]triaconta-1(29),2(30),4,15,17,20,22,25,27-nonaen-6-yl]phenyl]propane-1,2-diol]",C (a value greater than 10 °C and less than or equal to 25 °C is marked “C”),C (a value between 20 and 80 is marked “C”)
"Cn1nc2nc1-c1cc(ccc1F)Oc1c(F)cc3[nH]ccc3c1CCS(=O)(=O)CC(C)(C)CCC[C@]2(C)c1cccc(CC2(C(=O)O)CC2)c1 [Compound 288, 1-[[3-[(6R)-22,28-difluoro-3,6,10,10-tetramethyl-12,12-dioxo-24-oxa-12λ6-thia-3,4,19,30-tetrazapentacyclo[23.3.1.12,5.015,23.016,20]triaconta-1(29),2(30),4,15,17,20,22,25,27-nonaen-6-yl]phenyl]methyl]cyclopropanecarboxylic Acid]",C (a value greater than 10 °C and less than or equal to 25 °C is marked “C”),C (a value between 20 and 80 is marked “C”)
"Cn1nc2nc1-c1cc(ccc1F)Oc1c(F)cc3[nH]ccc3c1CCS(=O)(=O)CC(C)(C)CCC[C@]2(C)c1cccc(CC(C)(C)C(=O)O)c1 [Compound 289, 3-[3-[(6R)-22,28-difluoro-3,6,10,10-tetramethyl-12,12-dioxo-24-oxa-12λ6-thia-3,4,19,30-tetrazapentacyclo[23.3.1.12,5.015,23.016,20]triaconta-1(29),2(30),4,15,17,20,22,25,27-nonaen-6-yl]phenyl]-2,2-dimethyl-propanoic Acid]",C (a value greater than 10 °C and less than or equal to 25 °C is marked “C”),C (a value between 20 and 80 is marked “C”)
"Cn1nc2nc1-c1cc(ccn1)Oc1c(F)cc3[nH]ccc3c1CCS(=O)(=O)CC(C)(C)CCC[C@]2(C)c1cccc(CC2(C(=O)O)CC2)c1 [Compound 290, 1-[[3-[(6R)-22-fluoro-3,6,10,10-tetramethyl-12,12-dioxo-24-oxa-12λ6-thia-3,4,19,28,30-pentazapentacyclo[23.3.1.12,5.015,23.016,20]triaconta-1(29),2(30),4,15,17,20,22,25,27-nonaen-6-yl]phenyl]methyl]cyclopropanecarboxylic Acid]",C (a value greater than 10 °C and less than or equal to 25 °C is marked “C”),C (a value between 20 and 80 is marked “C”)
"Cn1nc2nc1-c1cc(ccn1)Oc1c(F)cc3[nH]ccc3c1CCS(=O)(=O)CC(C)(C)CCC[C@]2(C)c1cccc(CC(C)(C)C(=O)O)c1 [Compound 291, 3-[3-[(6R)-22-fluoro-3,6,10,10-tetramethyl-12,12-dioxo-24-oxa-12λ6-thia-3,4,19,28,30-pentazapentacyclo[23.3.1.12,5.015,23.016,20]triaconta-1(29),2(30),4,15,17,20,22,25,27-nonaen-6-yl]phenyl]-2,2-dimethyl-propanoic Acid]",C (a value greater than 10 °C and less than or equal to 25 °C is marked “C”),C (a value between 20 and 80 is marked “C”)
"C[C@@H](Cc1cccc([C@@]2(C)CCCC(C)(C)CS(=O)(=O)CCc3c(c(F)cc4[nH]ccc34)Sc3cccc(c3)-c3nc2co3)c1)C(=O)O [Compound 293, (2S)-3-[3-[(6R)-22-fluoro-6,10,10-trimethyl-12,12-dioxo-3-oxa-12λ6,24-dithia-19,30-diazapentacyclo[23.3.1.12,5.015,23.016,20]triaconta-1(29),2(30),4,15,17,20,22,25,27-nonaen-6-yl]phenyl]-2-methyl-propanoic Acid]",C (a value greater than 10 °C and less than or equal to 25 °C is marked “C”),B (a value between 12-20 is marked “B”)
